We go through 2 substances from US10577340B1, “Beraprost-314d crystals and methods for preparation thereof” (CHIROGATE INTERNATIONAL INC., priority 2018, dated 2020).

Data set [1] can be described thus: Crystalline form transformation from Form III to Form II at room temperature. It is filed as physicochemical. Particulars: FIG. 5. The protocol: (§1) X-ray Powder Diffraction (XRPD) Analysis: The XRPD patterns were collected on a Bruker D2 PHASER diffractometer with fixed divergence slits and ID LYNXEYE detector. The samples (ca. 100 mg) were flatly placed on a sample holder. The prepared samples were analyzed over a […] from 5° to 50° with step size of 0.02 degrees and step time of 1 second using CuKα radiation at a power of 10 mA and 30 kV. The CuKβ radiation was removed by a divergent beam nickel filter.
The Beraprost-314d crystal Form III (0.5 g, from Example 5) was placed in a glass vial, and isothermal at room temperature for 1 day.

Data set [2] is described as follows: Storage stability of the crystalline form (crystalline form change, degradation products). Particulars: six months. In kind it is physicochemical. On the procedure:
as §1

“Also recorded” adds a separate entry of the source.

Take “Beraprost-314d [Beraprost-314d crystal Form III]”: the crystalline form transformation entry in data set [1] (glass vial, isothermal at room temperature for 1 day) is recorded as “completely converted to Beraprost-314d crystal Form II”. For the same substance, in data set [1] (keeping at room temperature), the “time until conversion to Beraprost-314d crystal Form II” value was ≤ 1 days.

In the case of “Beraprost-314d [Beraprost-314d crystal Form II]”, in data set [2] (normal storage temperatures (about −20° C.)), the “stability during storage (other crystalline forms, degraded products)” value is reported as “no other crystalline forms or degraded products of impurities; also recorded: good stability with no other crystalline forms”. Moreover, the “stability during storage (other crystalline forms)” value in data set [2] (room temperature (about 20 to 25° C.)) is given as “good stability with no other crystalline forms”.
